Data taken from patent publication US20250250298A1, “ONCOLYTIC PEPTIDE AND USE THEREOF” (Rise Biopharmaceuticals Inc., priority 2022, published 2025).
Where a SMILES comes first, the peptide text is derived from it.

How the values were obtained:
HFW (Human fibroblast) = assay: MTT cytotoxicity, HFW; assay type: cell-based; settings: 24 hours incubation
Source text: (§1) The MTT assay is a colorimetric method for measuring the activity of enzymes in living cells that reduces Thiazolyl blue tetrazolium bromide (MTT) to formazan dyes showing a purple color. In this embodiment, a colorimetric 3-(4.5-dimethylthiazol-2-yl)-2.5-diphenyltetrazodium bromide (MTT) viability assay was used to assess the in vitro cytotoxicity of oncolytic peptides.
(§2) The half inhibition concentration (IC50) is the concentration required by the oncolytic peptides to reach fifty percent inhibition. In one embodiment, the oncolytic peptides were used for IC50 test via MTT colorimetric assay.
(§3) Human lung cancer lines PC9 and A549 and murine pancreatic cancer cell line Panc02 were cultured in RPMI medium supplemented with 10% fetal bovine serum and antibiotic in this embodiment. Additionally, murine hepatoma cell line Hepa 1-6, murine melanoma cell line B16-F10, murine fibrosarcoma cell line MN-11, murine mammary cancer cell line E0771 and human diploid fibroblast (HFW) were cultured in DMEM medium supplemented with 10% fetal bovine serum and antibiotic. Cells were cultured in a humidified incubator containing 5% CO2 at 37° C.
(§4) All cancer cell lines were seeded in a 96-well plate with a concentration of 5000-8000 cells/100 μl/well and incubated for 24 hrs. After medium was removed, 100 μl fresh medium containing peptide (ranging from 50 μM to 0.8 μM) was added to the wells. Following 24 hours incubation, fresh medium with MTT (0.5 mg/ml) was replaced and incubated for 3 hours. After medium/MTT was removed, DMSO was added at 100 μl for dissolving the formazan crystal. Cell survival rate was calculated by measuring the absorbance at 540 nm using a Multi-labeled Microplate Reader (Sunrise™, TECAN).

[1] = system: PC9 (Human non-small cell lung cancer cell); assay: MTT cytotoxicity, PC9; assay type: cell-based; settings: PC9, 24 hours incubation
Source text: as §1, §2, §3, §4

[2] = system: OECM-1 (Human oral cancer cell); assay: MTT cytotoxicity, OECM-1; assay type: cell-based; settings: OECM-1, 24 hours incubation
Source text: as §1, §2, §4

[3] = system: MN-11 (Murine fibrosarcoma); assay: MTT cytotoxicity, MN-11; assay type: cell-based; settings: MN-11, 24 hours incubation
Source text: as §1, §2, §3, §4

[4] = Peptide stability in serum; assay type: in vitro ADME; settings: 25% (vol/vol) bovine calf serum
Protocol: Since this kind of peptide is highly toxic, the hope is that the peptide can be decomposed after inducing cancer cells to release danger-associated molecular patterns (DAMPs), and will not stay in the body for too long. After exposure to 25% (vol/vol) bovine calf serum, the residues of peptides were analyzed by liquid chromatography, and the stability at different time points was calculated.

[5] = system: HepG2 Cancer Cells (Human hepatocellular carcinoma); assay: MTT cytotoxicity, HepG2; assay type: cell-based; settings: HepG2, 24 hours incubation
Source text: as §1, §2, §4

MN-11 fibrosarcoma = assay type: in vivo; settings: MN-11 tumor-bearing C57BL/6 mice
Protocol: FIGS. 4A-4B are schematic diagrams of MN-11 fibrosarcoma experiments. FIG. 4A: The right flank of the mouse was administrated with SEQ ID NO:9, and the left flank of the mouse was untreated (tumor only). […] Palpable tumors (100 mm^3) were injected (IT.) with single doses of SEQ ID NO:9 dissolved in PBS (1.0 mg peptide/50 μl PBS) once a day for 5 consecutive days, and the vehicle control was saline only (0.9% NaCl).
Female C57BL/6 mice (4- to 6-week old) as allogeneic model animals were purchased from BioLASCO Taiwan Co., Ltd. and maintained in a specific pathogen-free and controlled environment. During the experiments, female mice, weighing 18.0-24.0 g each, were kept in groups of 4 to 6 animals per cage under climate-controlled conditions, with 12 h light/dark cycles and an ambient temperature. The mice were housed in an enriched individually ventilated cage (IVC) system with free access to standard rodent chow and water ad libitum. The animals were anesthetized during the experimental procedures with 2.5% isoflurane gas. The animals were monitored daily. […]
Tumor size was measured 3 times a week using a caliper, and the volume of tumors was calculated using the following formula: Tumor size (mm^3)=0.5×(width^2×length). […] The survival rates of tumor-bearing mice were observed and recorded continuously until all animals died. […]

## CC(C)C[C@H](NC(=O)[C@H](Cc1ccc2ccccc2c1)NC(=O)[C@H](CCCCN)NC(=O)[C@H](CC(C)C)NC(=O)[C@H](Cc1c[nH]c2ccccc12)NC(=O)[C@H](CCCCN)NC(=O)[C@H](CCCNC(=N)N)NC(=O)[C@H](Cc1c[nH]c2ccccc12)NC(=O)[C@H](CCCNC(=N)N)NC(=O)[C@H](CCCNC(=N)N)NC(=O)[C@H](CCCCN)NC(=O)[C@H](CCCCN)NC(=O)[C@H](CCCCN)NC(=O)[C@@H](N)CCCCN)C(=O)N[C@@H](C)C(=O)N[C@@H](CCCCN)C(N)=O [SEQ ID NO: 9, KKKK-RR-WRK-WLK-Nal-LA-K-NH2] (HELM PEPTIDE1{K.K.K.K.R.R.W.R.K.W.L.K.[O=C([C@H](Cc1ccc2ccccc2c1)N[*:1])[*:2]].L.A.K.[am]}$$$$V2.0; N-terminus assumed)
HFW (Human fibroblast)
  IC50: 3.38 µM
[1]
  IC50: 3.02 µM
[2]
  IC50: 6.36 µM
[3]
  IC50: 2.9 µM
[4]; 0 hr
  Serum stability (residual peptide): 100.00%
[4]; 0.5 hr, read-out: Serum stability (residual peptide)
  remaining at 0.5 h: 90.7%
[4]; 1 hr, read-out: Serum stability (residual peptide)
  remaining at 1 h: 76.2%
[4]; 2 hr, read-out: Serum stability (residual peptide)
  remaining at 2 h: 77.9%
[4]; 4 hr, read-out: Serum stability (residual peptide)
  remaining at 4 h: 70.9%
[4]; 6 hr, read-out: Serum stability (residual peptide)
  remaining at 6 h: 74.2%
[4]; 8 hr, read-out: Serum stability (residual peptide)
  remaining at 8 h: 55.8%
[5]
  IC50: 9.81 µM
MN-11 fibrosarcoma; IT. 1.0 mg once a day for 5 days, vs untreated controls
  Survival (lifespan): extended the lifespan
MN-11 fibrosarcoma; IT. 1.0 mg peptide/50 μl PBS once a day for 5 consecutive days, vs saline control
  Tumor growth, treated tumor (right side): significantly inhibited unilateral (right side) tumor growth
